Results reported in ChEMBL document CHEMBL4020821, “Targeting Acidic Mammalian chitinase Is Effective in Animal Model of Asthma” (J Med Chem, 2018).

Legend:
[1] = molecular target: T1, Chitotriosidase-1 (Homo sapiens, UniProt Q13231); assay: Inhibition of human recombinant full length C-terminal His-tagged chitotriosidase expressed in CHO-K1 cells using 4-methylumbelliferyl-beta-D-N,N',N\"\"-triacetylchitotrioside as substrate after 60 mins by fluorescence assay; format: cell-based
[2] = molecular target: T2, Chitotriosidase-1 (Mus musculus, UniProt Q9D7Q1); assay: Inhibition of mouse recombinant full length C-terminal His-tagged chitotriosidase expressed in CHO-K1 cells using 4-methylumbelliferyl-beta-D-N,N',N\"\"-triacetylchitotrioside as substrate after 60 mins by fluorescence assay; format: cell-based
[3] = molecular target: T3, Acidic mammalian chitinase (Mus musculus, UniProt Q91XA9); assay: Inhibition of mouse recombinant full length C-terminal His-tagged acidic mammalian chitinase expressed in CHO-K1 cells using 4-methylumbelliferyl-beta-D-N,N'-diacetylchitobioside hydrate as substrate after 60 mins by fluorescence assay
[4] = Volume of distribution at steady state in BALB/c mouse at 3 mg/kg, iv by LC-MS/MS analysis; format: ADME, organism-based; details: in vivo, read-out: Vdss
[5] = Clearance in BALB/c mouse at 3 mg/kg, iv by LC-MS/MS analysis; format: ADME, organism-based; details: in vivo
[6] = Half life in BALB/c mouse at 3 mg/kg, iv by LC-MS/MS analysis; format: ADME, organism-based; details: in vivo
[7] = AUC (0 to infinity) in BALB/c mouse at 3 mg/kg, iv by LC-MS/MS analysis; format: ADME, organism-based; parameters: dose 3 mg/kg, route intravenous, time infinity; details: in vivo
[8] = Cmax in BALB/c mouse at 10 mg/kg, po by LC-MS/MS analysis; format: ADME, organism-based; parameters: dose 10 mg/kg, route oral; details: in vivo
[9] = Tmax in BALB/c mouse at 10 mg/kg, po by LC-MS/MS analysis; format: ADME, organism-based; details: in vivo
[10] = AUC (0 to infinity) in BALB/c mouse at 10 mg/kg, po by LC-MS/MS analysis; format: ADME, organism-based; parameters: dose 10 mg/kg, route oral, time infinity; details: in vivo
[11] = Oral bioavailability in BALB/c mouse at 10 mg/kg by LC-MS/MS analysis; format: ADME, organism-based; details: in vivo
[12] = Stability in liver microsomes (unknown origin) assessed as compound remaining after 20 mins; format: ADME, microsome; details: read-out: Stability
[13] = molecular target: T3, Acidic mammalian chitinase; assay: Inhibition of mouse recombinant full length C-terminal His-tagged acidic mammalian chitinase expressed in CHO-K1 cells using 4-methylumbelliferyl-beta-D-N,N'-diacetylchitobioside hydrate as substrate after 60 mins by Lineweaver-Burk plot analysis
[14] = molecular target: T1, Chitotriosidase-1; assay: Inhibition of human recombinant full length C-terminal His-tagged chitotriosidase expressed in CHO-K1 cells using 4-methylumbelliferyl-beta-D-N,N',N\"\"-triacetylchitotrioside as substrate after 60 mins by Lineweaver-Burk plot analysis; format: cell-based
[15] = molecular target: T2, Chitotriosidase-1; assay: Inhibition of mouse recombinant full length C-terminal His-tagged chitotriosidase expressed in CHO-K1 cells using 4-methylumbelliferyl-beta-D-N,N',N\"\"-triacetylchitotrioside as substrate after 60 mins by Lineweaver-Burk plot analysis; format: cell-based
[16] = system: Salmonella typhimurium; assay: Genotoxicity in Salmonella typhimurium by Ames test; format: toxicity; details: salmonella enterica subsp. enterica serovar typhimurium

T1 sequence (Q13231 whole entry): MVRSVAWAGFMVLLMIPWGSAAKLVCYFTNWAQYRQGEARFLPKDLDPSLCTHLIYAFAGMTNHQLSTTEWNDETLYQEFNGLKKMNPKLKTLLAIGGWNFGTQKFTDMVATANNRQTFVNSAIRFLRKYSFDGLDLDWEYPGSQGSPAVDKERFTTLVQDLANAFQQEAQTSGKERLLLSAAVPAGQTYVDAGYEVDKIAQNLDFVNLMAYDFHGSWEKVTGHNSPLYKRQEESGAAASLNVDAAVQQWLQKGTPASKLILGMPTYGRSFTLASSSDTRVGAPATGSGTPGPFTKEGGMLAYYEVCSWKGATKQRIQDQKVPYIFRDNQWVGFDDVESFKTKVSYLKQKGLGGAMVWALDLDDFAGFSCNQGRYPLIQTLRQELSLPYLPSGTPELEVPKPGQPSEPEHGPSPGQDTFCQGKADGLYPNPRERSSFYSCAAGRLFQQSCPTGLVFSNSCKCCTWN
T3 sequence (Q91XA9 whole entry): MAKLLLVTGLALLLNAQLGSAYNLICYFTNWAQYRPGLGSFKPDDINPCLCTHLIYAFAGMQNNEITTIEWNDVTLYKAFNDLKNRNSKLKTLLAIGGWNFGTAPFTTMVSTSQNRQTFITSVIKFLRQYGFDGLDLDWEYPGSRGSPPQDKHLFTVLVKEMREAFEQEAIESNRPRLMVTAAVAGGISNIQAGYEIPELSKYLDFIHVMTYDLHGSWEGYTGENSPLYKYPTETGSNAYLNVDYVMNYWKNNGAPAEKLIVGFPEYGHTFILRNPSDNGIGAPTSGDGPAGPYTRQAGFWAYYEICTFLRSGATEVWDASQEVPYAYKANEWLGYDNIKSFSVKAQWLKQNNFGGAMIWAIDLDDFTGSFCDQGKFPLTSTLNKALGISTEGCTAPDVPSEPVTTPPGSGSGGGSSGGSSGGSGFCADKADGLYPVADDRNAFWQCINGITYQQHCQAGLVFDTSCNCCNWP
T2 sequence (Q9D7Q1 whole entry): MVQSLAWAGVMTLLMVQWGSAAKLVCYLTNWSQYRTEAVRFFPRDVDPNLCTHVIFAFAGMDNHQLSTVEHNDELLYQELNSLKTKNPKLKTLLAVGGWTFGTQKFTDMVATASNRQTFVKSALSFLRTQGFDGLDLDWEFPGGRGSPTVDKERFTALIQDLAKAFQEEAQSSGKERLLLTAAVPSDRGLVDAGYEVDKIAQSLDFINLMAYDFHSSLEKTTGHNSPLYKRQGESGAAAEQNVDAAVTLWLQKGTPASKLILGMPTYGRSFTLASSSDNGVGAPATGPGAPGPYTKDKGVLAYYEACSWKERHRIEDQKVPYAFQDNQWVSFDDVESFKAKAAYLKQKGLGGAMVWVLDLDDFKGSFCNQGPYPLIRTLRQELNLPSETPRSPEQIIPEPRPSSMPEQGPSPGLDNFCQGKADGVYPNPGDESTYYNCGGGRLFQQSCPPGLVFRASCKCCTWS

Row | IC50 [1] [nM] | IC50 [2] [nM] | SMILES | also measured
1 | 1170 | 6960 | CC(C)c1ccc(CCN(C)C2CCN(c3nc(N)n[nH]3)CC2)cc1 | 
2 | 149 | 2580 | Nc1n[nH]c(N2CCC(N(CCc3ccc(Cl)cc3)Cc3ccccc3Cl)CC2)n1 | IC50 [3]: 9.7 nM; Vd [4]: 3.03 L/kg; clearance [5]: 45 mL/min/kg; half-life [6]: 6.78 h; AUC(0-inf) [7]: 1110 ng·h/mL; Cmax [8]: 618 ng/mL; Tmax [9]: 1 h; AUC(0-inf) [10]: 1750 ng·h/mL; bioavailability [11]: 47%; remaining at 20 min [12]: 21%
3 | 945 | 15600 | CC(C)N(CCc1ccc(Cl)cc1)C1CCN(c2nc(N)n[nH]2)CC1 | 
4 | > 100000 | > 100000 | CN(C1CCN(c2nc(N)n[nH]2)CC1)S(=O)(=O)Cc1ccc(Br)cc1 | 
5 | 765 | 3070 | CN(CCc1ccc(C2CC2)cc1)C1CCN(c2nc(N)n[nH]2)CC1 | 
6 | 1520 | 12600 | Cc1ccc(CCN(C)C2CCN(c3nc(N)n[nH]3)CC2)cc1 | 
7 | 385 | 7080 | CCN(CCc1ccc(Cl)cc1)C1CCN(c2nc(N)n[nH]2)CC1 | 
8 | > 100000 | > 100000 | CN(CCc1ccccc1)C1CCN(c2nc(N)n[nH]2)CC1 | 
9 | 6760 | 19800 | Nc1n[nH]c(N2CCN(CCOc3ccc(Br)cc3)CC2)n1 | IC50 [3]: 2100 nM
10 | 4160 | > 100000 | CN(CCc1ccc(C(C)(C)C)cc1)C1CCN(c2nc(N)n[nH]2)CC1 | 
11 | 23100 | > 100000 | Nc1n[nH]c(N2CCC(CNC(=O)c3ccc(Br)cc3)CC2)n1 | 
12 | 36 | 573 | Nc1n[nH]c(N2CCC(N(CCc3ccc(Cl)cc3)Cc3cccc4ccccc34)CC2)n1 | 
13 | 175 | 2700 | CN(CCc1ccc(Br)cc1)C1CCN(c2nc(N)n[nH]2)CC1 | Vd [4]: 12.8 L/kg; clearance [5]: 52.6 mL/min/kg; half-life [6]: 4.4 h; AUC(0-inf) [7]: 950 ng·h/mL; Cmax [8]: 672 ng/mL; Tmax [9]: 2 h; AUC(0-inf) [10]: 3340 ng·h/mL; bioavailability [11]: 99%; remaining at 20 min [12]: 97.5%
14 | > 100000 | > 100000 | CN(Cc1ccc(Br)cc1)CC1CCN(c2nc(N)n[nH]2)CC1 | 

Further lines, the compound ahead of its results:

Row | SMILES | IC50 [1] [nM] | IC50 [2] [nM] | also measured
15 | CC(C)CN(CCc1ccc(Br)cc1)C1CCN(c2nc(N)n[nH]2)CC1 | 123 | 1270 | Vd [4]: 1.66 L/kg; clearance [5]: 8.53 mL/min/kg; half-life [6]: 3.25 h; AUC(0-inf) [7]: 5860 ng·h/mL; Cmax [8]: 6040 ng/mL; Tmax [9]: 0.5 h; AUC(0-inf) [10]: 27900 ng·h/mL; bioavailability [11]: 100%; remaining at 20 min [12]: 78.3%
16 | CN(CCc1ccc(Cl)cc1)C1CCN(c2nc(N)n[nH]2)CC1 | 389 | 7470 | 
17 | Nc1n[nH]c(N2CCC(N(CCc3ccc(Cl)cc3)Cc3ccccc3)CC2)n1 | 163 | 1510 | IC50 [3]: 11.2 nM
18 | Nc1n[nH]c(N2CCC(NC(=O)Cc3ccc(Br)cc3)CC2)n1 | > 100000 | > 100000 | 
19 | CCc1ccc(CCN(C)C2CCN(c3nc(N)n[nH]3)CC2)cc1 |  | 7120 | 
20 | CC(C)CN(CCc1ccc(Cl)cc1)C1CCN(c2nc(N)n[nH]2)CC1 | 232 | 2960 | IC50 [3]: 18.8 nM; Ki [13]: 10.5 nM; Ki [14]: 312 nM; Ki [15]: 3400 nM; Vd [4]: 2.33 L/kg; clearance [5]: 9.06 mL/min/kg; half-life [6]: 2.97 h; AUC(0-inf) [7]: 5520 ng·h/mL; Cmax [8]: 1860 ng/mL; Tmax [9]: 0.25 h; AUC(0-inf) [10]: 9560 ng·h/mL; bioavailability [11]: 52%; remaining at 20 min [12]: 76.9%; Activity [16]: Non-Toxic
21 | Nc1n[nH]c(N2CCC(C(=O)NCc3ccc(Br)cc3)CC2)n1 | > 100000 | > 100000 | 
22 | Nc1n[nH]c(N2CCN(C(=O)COc3ccc(Br)cc3)CC2)n1 | > 100000 | > 100000 | 
23 | CN(CCc1ccc(Cl)cc1Cl)C1CCN(c2nc(N)n[nH]2)CC1 | 2260 | 47600 | 
24 | Nc1n[nH]c(N2CCC(NS(=O)(=O)Cc3ccc(Br)cc3)CC2)n1 | > 100000 | > 100000 | Vd [4]: 1.16 L/kg; clearance [5]: 11.5 mL/min/kg; half-life [6]: 11.1 h; AUC(0-inf) [7]: 4340 ng·h/mL; Cmax [8]: 3250 ng/mL; Tmax [9]: 1 h; AUC(0-inf) [10]: 8210 ng·h/mL; bioavailability [11]: 57%; remaining at 20 min [12]: 100%
25 | Nc1n[nH]c(N2CCC(N(CCc3ccc(Cl)cc3)CC3CCCCC3)CC2)n1 | 123 | 2030 | 
26 | Nc1n[nH]c(N2CCC(NC(=O)Nc3ccc(Br)cc3)CC2)n1 | > 100000 | > 100000 | 
27 | CCN(CCc1ccc(Br)cc1)C1CCN(c2nc(N)n[nH]2)CC1 | 105 | 2720 | 
